From patent EP4744680A1, “TARGETED CHEMICAL DRUG AND PREPARATION METHOD THEREFOR, PHARMACEUTICAL COMPOSITION, AND USE OF TARGETED CHEMICAL DRUG” (Bai Yao Zhi Da (Beijing) Nanobio Technology Co., Ltd., priority 2023, dated 2025)

How the values were obtained:
U251-RFP human glioma = assay: In-vivo efficacy study in the U251-RFP human glioma orthotopic mouse model (drug of Example 9); parameters: species or system mouse (BALB/c nude); conditions: 15mg/Kg intraperitoneal daily for 4 weeks
Source text: 2.Dosing regimen: Table 41

[1] = Body weight and general condition in the U251 study; format: in vivo, mouse (BALB/c nude); conditions: 15mg/Kg intraperitoneal daily for 4 weeks
Procedure: The relationship between body weight change and the dosing regimen is recorded.Survival and health status are also monitored, including activity levels and food intake during the dosing period. • c) Tumor and Organ Imaging: At the end of the dosing period, mice are euthanized, and their brain, heart, liver, spleen, lungs, and kidneys are excised.

In the case of `Cn1nnc2c(C(N)=O)ncn2c1=O` [Temozolomide], the “Tumor growth inhibition rate (TGI, %) at different days post-inoculation” value (U251-RFP human glioma; Day 6) is reported as 9.9%, the “Tumor growth inhibition rate (TGI, %) at different days post-inoculation” value (U251-RFP human glioma; Day 10) is reported as 13.2% and the “Tumor growth inhibition rate (TGI, %) at different days post-inoculation” value (U251-RFP human glioma; Day 13) is reported as 39.6%. For the same molecule, the “Tumor growth inhibition rate (TGI, %) at different days post-inoculation” value (U251-RFP human glioma; Day 17) was 65.6%, the “Tumor growth inhibition rate (TGI, %) at different days post-inoculation” value (U251-RFP human glioma; Day 20) was 73.7% and the “Tumor growth inhibition rate (TGI, %) at different days post-inoculation” value (U251-RFP human glioma; Day 24) was 73.7%. For the same molecule, the “Tumor growth inhibition rate (TGI, %) at different days post-inoculation” value (U251-RFP human glioma; Day 27) was 74.2%, the “Tumor weight” value (U251-RFP human glioma; end of dosing period) was 0.002 ± 0.001 g and the IRTW% (U251-RFP human glioma; tumor weight inhibition rate) was 98.34%. The “Body weight change on Day 27 compared to pre-dosing” value [1] was “+12%”.
